Assay results reported in patent US6887883B2, “Use of natural chrysanthone compounds having antiangiogenic activity” (Sigma-Tau Industrie Farmaceutiche Riunite S.p.A., priority 2000, dated 2005).
Like-named read-outs stand apart in the source and are kept apart here.

Experiments:
Format in all cases: cell-based
BMEC endothelial cells = experiment: Chemotaxis test using the Boyden chamber (BMEC migration towards bovine serum)
Description: This test is the first screening assay for compounds with potential angiogenesis inhibiting or facilitating activity (Glaser B. M. et al, Nature, 1980; 288:483-4).
Chrysanthone A, one of the compounds to which the invention relates, was subjected to a chemotaxis test using the Boyden chamber (Werner F., Goodwin R. H. and Leonard E. J., Journal of Immunology Methods, 1980; 33:239-247).
The realisation of this in-vitro assay has entailed the development of techniques for the isolation and culture of bovine endothelial cells of both the aorta (BAEC) and the adrenal marrow (BMEC) as well as the identification of suitable reference compounds. One of the advantages of the use of the Boyden chamber for the chemotaxis test is the possibility of obtaining quantitative data. The Boyden chamber consists in an upper and a lower well separated by a polycarbonate filter with 8 μm pores. A solution containing the chemoattractant is placed in the lower well, while the cells are inserted in the upper well. After a period of incubation, the cells which have migrated across the filter in response to the chemotactic stimulus are counted on the undersurface of the membrane.
In the chemotaxis test, the chemoattractant selected was bovine serum (1% in DMEM culture medium). The BMEC endothelial cells were resuspended in DMEM with 1% bovine serum albumin (BSA) and analysed in this test for 4 hours. The chemotaxis was quantified by direct cell count under the optical microscope. The migration percentages presented in the chemotaxis table expressed as “% migration” were calculated according to the formula: (T−C/C)×100 where T=mean number (n^o) of cells migrating in the test sample, and C=mean number of cells migrating in the control.
A control consisting of cells not treated with the study compound, migrating towards the serum, was included in every chemotaxis experiment.
The mean number of cells migrating refers to the readings of 5 microscopic fields/well in 4 independent chemotaxis wells per sample.
Normally, suramin is used as the reference compound in chemotaxis tests.
(§1) This test was conducted using the procedure described in Example 1.

[1] = tested on: Bovine microvascular endothelial cells (BMEC); experiment: Sulphorhodamine B (SRB) cytotoxicity test on BMEC; conditions: for IC50: concentration corresponding to 50% of cytotoxic activity, read-out: Cytototoxicity on BMEC IC50; for Cytototoxicity on BMEC IC0: maximum non-cytotoxic concentration
Method: The evaluation of the intrinsic toxicity of chrysanthone A was done by comparing it with suramin using the Sulphorhodamine B (SRB) cytotoxicity test described here below.
Bovine microvascular endothelial cells (BMEC) were seeded, at a density of 3000 cells/well, on 96-well microtiter plates, in normal culture medium (200 μl/well). On the next day the study compounds were added to the wells in scalar concentrations. On the third day after seeding the medium was removed and three washings with PBS were performed. At the end of the washings, 200 μl of culture medium were added to each well and the plates were placed in an incubator at 37° C., 5% CO2 for the next 48 hours. At the end of this incubation period, the medium was removed and the cells were treated cold for 1 hour with a solution of 15% trichloroacetic acid (TCA). The wells were washed three times with distilled H2O by immersion of the plate and removal by overturning. 200 μl/well of 0.4% SRB in 1% acetic acid were added to the plates and incubated for 30 min. The wells were washed three times with 1% acetic acid, and lastly 200 μl/well of Tris 10 mM were added.
The staining of the well was quantified by spectrophotometric readout at a wavelength of 540 nm. Comparison of the values obtained in the wells containing the study compound and the controls made it possible to determine the IC50 and IC0 of the compound according to the invention, defined respectively as the concentration corresponding to 50% of cytotoxic activity (IC50) and the maximum non-cytotoxic concentration (IC0).
as §1

Mes-Sa line = experiment: SRB cytotoxicity test on human tumour line Mes-Sa
MCF-7 line = experiment: SRB cytotoxicity test on human tumour line MCF-7; conditions: MCF7, MCF-7 human tumour line
LoVo-Dx line = experiment: SRB cytotoxicity test on human tumour line LoVo-Dx
LoVo line = experiment: SRB cytotoxicity test on human tumour line LoVo
[2] = Bos taurus, Endothelial cell, compound at its IC0 (chrysanthone A 0.4 μM, two independent experiments; chrysanthone C 10 μM)

| SMILES | % Migration IC0 (BMEC endothelial cells; 1% bovine serum chemoattractant, 4 hours, compound at its IC0 (concentration printed in cell), (T−C/C)×100 vs untreated control) [μM = −58%] | IC50 ([1]; Bos taurus, Endothelial cell) [µM] | Cytototoxicity on BMEC IC0 [1] [µM] | inhibition at 10 µM (BMEC endothelial cells; [2]) [%] | IC50 (Mes-Sa line) [µM] | IC50 (MCF-7 line) [µM] | IC50 (LoVo-Dx line) [µM] | inhibition at 0.4 µM (BMEC endothelial cells; [2]) [%] | inhibition of BMEC migration (BMEC endothelial cells; compound at its IC0 (chrysanthone A 0.4 μM, two independent experiments; chrysanthone C 10 μM)) | IC50 (LoVo line) [µM] | IC50 ([1]; listed as chrysanthone A) [µM] | IC50 [1] [µM] |
| --- | --- | --- | --- | --- | --- | --- | --- | --- | --- | --- | --- | --- |
| Cc1ccc(C(=O)Nc2ccc(S(=O)(=O)O)c3cc(S(=O)(=O)O)cc(S(=O)(=O)O)c23)cc1NC(=O)c1cccc(NC(=O)Nc2cccc(C(=O)Nc3cc(C(=O)Nc4ccc(S(=O)(=O)O)c5cc(S(=O)(=O)O)cc(S(=O)(=O)O)c45)ccc3C)c2)c1 [Suramin, reference compound] | 100 | > 500 | 100 |  |  |  |  |  |  |  |  |  |
| CO[C@@H]1CC(=O)c2c(cc3c(c2O)COC(C)(O)C3)[C@@H]1O (stereo partly drawn) [Chrysanthone C] |  | 35 | 10 | 54 |  |  |  |  |  |  |  |  |
| CO[C@@H]1CC(=O)c2c(cc3cc(C)ncc3c2O)[C@@H]1O [Chrysanthone A] |  |  | 0.4 |  | 7.8 | 11.6 | 80 | 44 | 52%±2.8 | 15.8 | 1.5 | 35 |
